Here are results for one molecule from article PMC10812521, “Boesenbergia rotunda and Its Pinostrobin for Atopic Dermatitis: Dual 5-Lipoxygenase and Cyclooxygenase-2 Inhibitor and Its Mechanistic Study through Steady-State Kinetics and Molecular Modeling” (Antioxidants, 2024).

One series concerns the target T1, Human recombinant COX-2 (Homo sapiens, UniProt P35354).
T1 construct: purchased Sigma Aldrich C0858; host or cells: insect cells
T1 sequence (P35354 18-604): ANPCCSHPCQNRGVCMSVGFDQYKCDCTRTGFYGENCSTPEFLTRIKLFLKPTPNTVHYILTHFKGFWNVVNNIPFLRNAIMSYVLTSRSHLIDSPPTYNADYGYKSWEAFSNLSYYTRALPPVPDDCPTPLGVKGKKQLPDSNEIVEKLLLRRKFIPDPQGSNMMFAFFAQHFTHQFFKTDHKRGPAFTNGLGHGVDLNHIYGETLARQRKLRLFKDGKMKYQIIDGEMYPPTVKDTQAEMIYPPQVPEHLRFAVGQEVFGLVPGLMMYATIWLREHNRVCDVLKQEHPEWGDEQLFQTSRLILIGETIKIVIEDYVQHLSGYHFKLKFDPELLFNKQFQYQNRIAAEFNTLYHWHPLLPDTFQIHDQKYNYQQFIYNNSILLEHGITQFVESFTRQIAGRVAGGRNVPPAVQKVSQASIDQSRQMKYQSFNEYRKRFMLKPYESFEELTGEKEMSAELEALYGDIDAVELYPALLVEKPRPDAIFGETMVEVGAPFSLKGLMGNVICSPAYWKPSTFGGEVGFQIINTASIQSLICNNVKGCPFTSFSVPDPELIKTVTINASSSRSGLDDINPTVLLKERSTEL
The series is described as follows: Cyclooxygenase-2 inhibitory assay. In kind it is biochemical. The method, then: This method was adapted and modified from Chew et al. (2018). Human recombinant COX-2 expressed in insect cells (Sigma Aldrich, C0858) was used in this experiment. Initially, a solution of 100 mM Tris HCl buffer, pH 8, was plated out in each well of a 96-well plate. Various concentrations of 40 µL samples (dissolved in polysorbate-20 and DMSO) were further added to the plate, followed by the addition of 40 µL of 40 U COX-2 enzyme (in ice-cool 100 mM Tris HCl buffer, pH 8). The mixture was incubated at 25 °C for 15 min under dark condition. Following the incubation, 10 µL of 20 mM N,N,N′,N′-tetramethyl-p-phenylenediamine (TMPD) and 4 µL of 10 µM of arachidonic acid were added to the mixture. Incubation of the mixture was further performed at a subdued light condition for 15 min. Prostaglandin G2 (PGG2) as an intermediate peroxide product was formed by the reaction and further oxidized the TMPD to a purple-colored TMPD complex. The absorbance was measured at 611 nm. The experiments were performed in duplicate wells. […] The percentage of inhibition was calculated by Equation (7), and the IC50 values were determined. (7) % Inhibition=Absorbance control−Absorbance sample/Absorbance control×100

The nature of series [1]: DPPH radical scavenging activity. The settings on record: pure compounds. As to the method:
Each extract/EOs sample (20 µL) at various concentrations ([…]–5 mg/mL) was placed to a 96-well plate, followed by the addition of 120 µM DPPH solution in methanol (180 µL). The plate was subsequently incubated for 30 min in the dark at 37 °C. After that, the absorbance was measured by a microplate reader at 517 nm. Quercetin and solvent were used as a positive control and a control, respectively. The radical scavenging percentage inhibition against DPPH was calculated using Equation (4). (4) % Inhibition=Absorbance control−Absorbance sample/Absorbance control×100
For orientation: Loss of DPPH colour is used to gauge radical scavenging.

Series [2] is described as follows: Ferric reducing antioxidant power (FRAP). Particulars: pure compound. The method, then:
Each extract/EOs sample (10 µL) was added to each well of a 96-well plate at various concentrations (1–5 mg/mL), followed by a freshly prepared FRAP reagent (190 µL). The mixture was then incubated at room temperature for 4 min. Vivid blue resulted from the […]. The absorbance was further measured at 595 nm. The FRAP value (Equation (6)) was determined by calculating the concentration of ferric ions in the samples relative to the calibration curve of FeSO4 (FRAP value in µM FeSO4/mg dry weight of extract). (6) FRAP value=C ×v (mL)/d × c (mg/mL) where C is the calibrated sample concentration, v is the volume sample, d is the dilution factor, and c is the concentration of the tested sample.

The conditions of series [3]: topical application, mouse model, 1000 mg/kg; cited from earlier work.

Like-named read-outs stand apart in the source and are kept apart here. Some results are limits rather than exact numbers.

As to `COc1cc(O)c2c(c1)O[C@H](c1ccccc1)CC2=O` [Pinostrobin, pinostrobin], the IC50 at Human recombinant COX-2 (read-out: COX-2 IC50) and on Human recombinant COX-2 (read-out: COX-2 IC50 (µg/mL) (converted)) was 286 µM throughout. For the same molecule, in series [1], the “DPPH Radical; IC50” value is given as more than 1000 µg/mL. For the same molecule, the “FRAP (mM FeSO4/g Extract)” value in series [2] came out at 1.04 ± 0.01 mM FeSO4/g Extract. For the same molecule, the dermal toxicity result in series [3] is given as “no dermal toxicity was observed”.
